Laboratory results reported in patent US6900318B1, “1,4,5,6-tetrahydropyrimidine derivative as a vitronectin inhibitor” (Aventis Pharma Deutscland GmbH, priority 1999, dated 2005).

Tested on: thyroparathyroidectomized (TPTX) rats
Assay: PTH-induced hypercalcemia in the TPTX rat model of bone resorption
Type: in vivo
Settings: PTH treated TPTX male Sprague Dawley rats; perorally twice at 10 mg/kg (time 0 and 3 h after start of PTH infusion); serum at 6 hours
From the text: 9) Pharmacological Testing: PTH-Induced Hypercalcemia in the TPTX Rat Model of Bone Resorption
In this in vivo model a stimulation of bone resorption is induced in thyroparathyroidectomized (TPTX) rats by the infusion of parathyroid hormone (PTH). The changes in bone resorption are monitored by measuring the serum calcium concentration which is directly related to the extent of bone resorption.
Male Sprague Dawley rats (OFA-IFFA CREDO, France) weighting 150-200 g were thyroparathyroidectomized by the supplier. The rats were allowed free access to a standard commercial pelleted diet containing 7 g Ca/kg (UAR) and Eau de Volvic water. The success of thyroparathyroidectomy was tested by measuring serum calcium concentrations 8 days after operation in overnight fasted animals. Rats were considered as TPTX when the serum calcium level was <80 mg/l.
For treatment with PTH, rat PTH(1-34) (Bachem) was dissolved in 0.15 M sodium chloride solution containing 2% Cys-HCl and delivered via osmotic minipumps (ALZET 2001 D) at 200 pmol/kg/h. […]
Serum total calcium concentrations (=calcemia) were measured […] (Ciba-Corning) using a IEMS Labsystems microplate reader at 540 nm. The differences between the mean values of calcemia in the groups were analysed for variance and by Dunnett's test. The activity of the test compound was calculated as % effect according to the formula: [formula]

Structure (SMILES): CCOC(=O)[C@H](CNC(=O)c1ccc(CCC(=O)NC2=NCCCN2)cc1)NS(=O)(=O)c1cccc2ccccc12.O=C(O)/C=C/C(=O)O [compound of formula I, ethyl (2S)-2-(naphthalene-1-sulfonylamino)-3-(4-(2-(1,4,5,6-tetrahydropyrimidin-2-ylcarbamoyl)ethyl)benzoylamino)propionate hemifumarate]
- % effect on serum total calcium concentration (calcemia): −45%
